Measurements as given in patent US20090082353A1, “TREATMENT OF EPILEPSY WITH NON-IMIDAZOLE ALKYLAMINES HISTAMINE H3-RECEPTOR LIGANDS” (priority 2005, published 2009).

What was measured:
[1] = system: pentetrazole-induced convulsions; settings: mice and rats; cited from earlier work
[2] = system: electrically-driven convulsions; settings: in vivo; cited from earlier work
[3] = system: convulsions; settings: rodents; cited from earlier work
[4] = system: H3-receptor; settings: cited from earlier work
[5] = system: intrahippocampal kainate-induced temporal lobe seizures; settings: mice; cited from earlier work
[6] = system: clonic convulsions induced by pentetrazole; test: clonic convulsions induced by pentetrazole in mice; assay type: in vivo
Description: The inventors also assessed the effects of one of the non-imidazole compound they described in WO 00/06254, BF2-649 (3-(4-chlorophenyl)propyl 3-piperidinopropyl ether) at 10 mg/kg on clonic convulsions induced by pentetrazole in mice.

[7] = system: pharmacoresistant epilepsy; test: clinical study in pharmacoresistant epileptic patients; assay type: in vivo, human; settings: 20 to 40 mg/day during 3 months
Description: A clinical study has confirmed the efficiency of the compounds of the invention in treating pharmacoresistant epilepsy. Epileptic patients were enrolled. Those patients suffered from highly frequent seizures (generally more than 10 seizures monthly) despite their treatment consisting in one or more usual anti-epileptic drug of various classes (barbiturics, depakine, lamotrigine, gabapenine, benzodiazepines . . . ). Patients were administered with 3-(4-Chlorophenyl)propyl 3-piperidinopropyl ether at doses comprised between 20 and 40 mg/day during 3 months. Seizures frequency was reduced by 50% in a significant number of patients.

[8] = system: GAERS (Genetic Absence Epilepsy, Rat from Strasbourg); test: GAERS rat genetic model of absence epilepsy, EEG spike-and-wave discharges; assay type: in vivo
Description: In a rat genetic model of human epilepsy (particularly of “absence” epilepsy in children and adults), the GAERS (Genetic Absence Epilepsy, Rat from Strasbourg; Vergnes et al, Epilepsy Res. 1989; 4, 8-13), 3-(4-Chlorophenyl)propyl 3-piperidinopropyl ether diminished by up to 77% the number and duration of spike-and-wave discharges, i.e. characteristic EEG changes of the disorder, at a dose of 20 mg/kg. In this strain of Wistar rats with spontaneous generalized non convulsive seizures (absence seizures), seizures are characterized by bilateral and synchronous spike-and-wave discharges (7-9 Hz) on EEG, concomitant with behavioural arrests. These discharges generally last about 20 sec and occur spontaneously every minute when the animals are in a state of quiet wakefulness. Pharmacological reactivity of this model is similar to human absence-epilepsy (e.g., valproate and ethosuccimide are protective). After a recovery period, implanted rats (cortical and hippocampal EEG electrodes) were recorded over a 20 min reference period. Then, 3-(4-Chlorophenyl)propyl 3-piperidinopropyl ether (5 or 20 mg/kg, i.p.) or saline were administered (n=8 per group) and the EEG recording was continued for 60 min. Rats received the alternate treatment one week later. Cumulated duration of absence-seizures was measured by 20 min periods during the two sessions.

[9] = system: intrahippocampal kainate-induced temporal lobe seizures; test: intrahippocampal kainate-induced temporal lobe seizures in mice, EEG; assay type: in vivo
Description: Unilateral injection of kainic acid (1 nmol in 50 nl) into the dorsal hippocampus in mice induces a non-convulsive status that results in spontaneous recurrent focal seizures after 2-3 weeks. Seizures (5 to 20 times per hour in quiet mice) are characterized by a behavioural arrest and/or stereotypes, concomitant with spike and poly-spike discharges recorded in the injected hippocampus. […] This model reproduces the behavioural, EEG, pharmacological and histological characteristics of mesial temporal lobe epilepsy, a form of epilepsy which is often drug-resistant in humans. After a recovery period, implanted mice (for EEG recordings) were injected with kainic acid. They were EEG recorded at least 3 weeks after injection for selection of animals with consistent hippocampal seizure. Then, after a 20 min reference recording period, selected mice received either 3-(4-Chlorophenyl)propyl 3-piperidinopropyl ether (10 or 20 mg/kg i.p.) or saline and the recording was continued for 60 min. Treatments were given in a counter balanced order (after a one week washout period between two sessions).

[10] = system: photo paroxymal response (PPR); test: photosensitivity model, intermittent photic stimulation (IPS) in epileptic patients; assay type: in vivo, human
Description: Photosensitivity, defined as a generalized epileptiform reaction on intermittent photic stimulation (IPS) outlasting the stimulus train is found in about 5% of epileptic patients (Kasteleijn-Nolst trenité DGA. Acta Neurol Scand, 1989; 80:1-149). Unlike most other epilepsies, photosensitive epilepsy is a reflex epilepsy and epileptiform discharges can be evoked at any time by IPS in the laboratory. By determination of both upper and lower sensitivity limits (frequencies per flash) a so-called photosensitivity range can be determined. This range is related to liability of seizures in daily life of the patient. This photosensitivity range is relatively stable within a patient and can be diminished of abolished by antiepileptic medication. […] Furthermore, it is possible to explore the time, onset and duration of the effect, a dose-response relationship and to document serum concentration-time profiles of the study drug. […] The single blind design was chosen in order to reduce comparison bias of IPS response observed after treatment with 3-(4-Chlorophenyl)propyl 3-piperidinopropyl ether administration at Day 2 with placebo evaluation at Day 1. Five single doses will be studied (10 to 90 mg). the margin of safety was determined from the nonclinical and clinical experiments with 3-(4-Chlorophenyl)propyl 3-piperidinopropyl ether.

[11] = system: high-frequency cortical rhythms (EEG); test: EEG rhythms in healthy human volunteers; assay type: in vivo
Description: In healthy human volunteers, orally-administered 3-(4-Chlorophenyl)propyl 3-piperidinopropyl ether dose-dependently elicited electroencephalographic changes (i.e. enhanced high-frequency cortical rhythms at the expense of low-frequency rhythms) which are regarded as predictory of facilitated thalamo-cortical activation and inhibition of pathological synchronisation underlying spike-wave discharges in epileptic states (Avanzini et al, Clinical Neurophysiol, 2000, 111, Suppl 2, S19). Groups of 6 male subjects received 40-120 mg 3-(4-Chlorophenyl)propyl 3-piperidinopropyl ether orally.

[12] = system: GAERS (Genetic Absence Epilepsy, Rat from Strasbourg); settings: in vivo; cited from earlier work
[13] = system: amygdaloid-kindled seizures; settings: rats; cited from earlier work
[14] = system: seizure susceptibility; settings: mice; cited from earlier work

Q: For `NC(=NCc1ccc(Cl)cc1)SCCCc1cnc[nH]1` [clobenpropit], which “effect on pentetrazole-induced convulsions” value [1] is on record?
A: prevent pentetrazole-induced convulsions

Q: And the “effect on electrically-driven convulsions” value [2]?
A: reduce electrically-driven convulsions

Q: For `NCCc1c[nH]cn1` [histamine], which protection from convulsions [3] is on record?
A: tend to protect rodents from convulsions

Q: For `CN(C)CCCSC(=N)N` [dimaprit], which “potency of H3-receptor antagonism” value [4] is on record?
A: only very low potency

Q: For `O=C1NC(=O)C(c2ccccc2)(c2ccccc2)N1` [phenyloin], which “effect of antiepileptic drugs on kainate-induced seizures” value (“effect of antiepileptic drugs” below) [5] is on record?
A: without significant effects

Q: For `Clc1ccc(CCCOCCCN2CCCCC2)cc1` [3-(4-chlorophenyl)propyl 3-piperidinopropyl ether], which “modification (enhancement) of anticonvulsive properties of established antiepileptic drugs” value ([6]; 10 mg/kg with carbamazepine, sodium valproate, phenyloin, diazepam, Phenobarbital) is on record?
A: did not modify

Q: And the “preventing the convulsion (latency or duration)” value ([6]; 10 mg/kg, mice, pentetrazole)?
A: ineffective

Q: And the tolerability [7]?
A: perfectly well tolerated

Q: And the “reduction of seizures frequency” value ([7]; add-on, in a significant number of patients)?
A: 50%

Q: And the “diminution of number and duration of spike-and-wave discharges” value ([8]; 20 mg/kg i.p., GAERS rats)?
A: up to 77%

Q: What about the “spike and wave discharges at 20 min” value ([8]; 20 mg/kg, 20 min) of the same compound?
A: total suppression

Q: What about the “spike and wave discharges at 1 h” value ([8]; 20 mg/kg, 1 h) of the same compound?
A: nearly total suppression

Q: And the frequency of discharges ([9]; 10 or 20 mg/kg i.p., mice)?
A: reduced significantly

Q: What about the “modification of interictal EEG profiles (non specific sedative effect)” value ([9]; 10 or 20 mg/kg i.p., mice) of the same compound?
A: without any significant modification

Q: And the “hippocampal seizures, number and duration” value ([9]; kainate mice)?
A: reducing both the number and duration of seizures

Q: And the “suppression of PPR” value ([10]; 20 mg, four patients)?
A: one patient showed total suppression

Q: And the “duration of total PPR suppression” value ([10]; 20 mg, one patient)?
A: 6 h

Q: And the “suppression of PPR” value ([10]; 40 mg, four patients)?
A: one showed partial suppression of PPR and one total suppression of PPR

Q: What about the duration of effect ([10]; 60 mg) of the same compound?
A: more than 8 hours

Q: And the “onset of effect post administration” value ([10]; 60 mg)?
A: 1 to 2 h

Q: And the clinical response ([10]; 60 mg, four patients)?
A: clinical response in all four patients

Q: And the “total suppression of PPR” value ([10]; 60 mg, four patients)?
A: two patients showed total suppression of PPR

Q: What about the “longest duration of effect” value ([10]; 60 mg, one patient) of the same compound?
A: up to 36 hours

Q: And the “tolerability of addition to conventional antiepileptic drugs” value ([10]; add-on to Depakine, Tegretol, Keppra, Lamictal)?
A: well tolerated

Q: What about the “EEG changes triggered by repetitive photic stimulation” value ([10]; single dose, photosensitive patients) of the same compound?
A: dose-dependently suppressed

Q: And the “EEG response after repeated dosing” value ([11]; 40 mg for 1 week)?
A: enhancement of the response observed on single administration

Q: And the “fast EEG activities” value ([11]; 40-120 mg orally, single dose, anterior leads, dose-dependent)?
A: significant enhancement of fast activities

Q: With `CNCCc1ccccn1` [betahistine] as the compound, how does the “potency of H3-receptor antagonism” value [4] read?
A: only very low potency

Q: Which protection from convulsions [3] does the source give for `Cc1nc(N)nc(N)c1-c1ccc(Cl)c(Cl)c1` [metoprine] here?
A: tend to protect rodents from convulsions

Q: Which “effect of antiepileptic drugs” value [5] does the source give for `CC[C@@H](C(N)=O)N1CCCC1=O` [levetiracetam] here?
A: without significant effects

Q: Which “pharmacological reactivity of the GAERS model” value [12] does the source give for `CCC1(C)CC(=O)NC1=O` (stereo not shown) [ethosuccimide] here?
A: protective

Q: Which “effect on pentetrazole-induced convulsions” value [1] does the source give for `S=C(NC1CCCCC1)N1CCC(c2cnc[nH]2)CC1` [thioperamide] here?
A: prevent pentetrazole-induced convulsions

Q: And the “effect on electrically-driven convulsions” value [2]?
A: reduce electrically-driven convulsions

Q: And the “effect on amygdaloid-kindled seizures” value [13]?
A: ineffective

Q: And the “effect on seizure susceptibility” value [14]?
A: failed to affect seizure susceptibility

Q: With `NC(=O)N1c2ccccc2C=Cc2ccccc21` [carbamazepine] as the compound, how does the “effect of antiepileptic drugs” value [5] read?
A: without significant effects

Q: For `C(=NC12CC3CC(CC(C3)C1)C2)N1CCC(c2cnc[nH]2)CC1.Cl.Cl` [AQ0145], which “effect on pentetrazole-induced convulsions” value [1] is on record?
A: prevent pentetrazole-induced convulsions

Q: And the “effect on electrically-driven convulsions” value [2]?
A: reduce electrically-driven convulsions

Q: For `N[C@@H](Cc1c[nH]cn1)C(=O)O` [L-histidine], which protection from convulsions [3] is on record?
A: tend to protect rodents from convulsions

Q: Which “potency of H3-receptor antagonism” value [4] does the source give for `c1ccc(C2(N3CCCCC3)CCCCC2)cc1` [phencyclidine] here?
A: only very low potency
